Data taken from patent US10507207B2, “Non-nucleosidic inhibitors of reverse transcriptase as antagonists of cell proliferation and inducers of cell differentiation” (ISTITUTO SUPERIORE DI SANITA, priority 2001, dated 2019).

Experiments:
early mouse embryos = test: Early mouse embryo cultures from in vitro fertilization (IVF) assays; settings: added to cultures of IVF embryos; preliminary studies
[1] = test system: murine and human cell lines; test: Cell proliferation by cell counting, all cell lines; assay type: cell-based; settings: 350 μM nevirapine vs DMSO control
Description: Cells were cultured with (dashed line) and without (DMSO, solid line) nevirapine. The proliferation rate is expressed as the ratio of counted cells at the indicated times relative to the initial number of seeded cells, taken as 1. Points represent the mean value and bars the standard deviation from at least three independent assays for all cell types.
Samples were withdrawn at specific times and cells were counted in nevirapine-exposed and control (DMSO-exposed) cultures. […] Saos-2 osteosarcoma cells were the most slowly responsive type, and only after 5 days of exposure did the growth rate begin to decrease compared to control cultures.

NIH/3T3 = test: FACS cell cycle analysis; assay type: cell-based, murine; settings: after 72 h of nevirapine treatment
Excerpt: (§1) FIG. 3A. Cell cycle analysis in control and nevirapine-exposed cells. […] In the U343 glioma cell line, the cell cycle was separately analysed in the diploid cell fraction (representing about ⅔ of all cells) and in the remaining fraction (about ⅓) which develops aneuploidy. FIG. 3B. […] The filter was reprobed with anti-actin antibody to control equal loading (lower panel).

HT-29 = test: FACS cell cycle analysis; assay type: cell-based, human; settings: after 72 h of nevirapine treatment
Excerpt: as §1

MCF-7 = test: FACS cell cycle analysis; assay type: cell-based, human; settings: after 72 h of nevirapine treatment
Excerpt: as §1

U343 Mg = test: FACS cell cycle analysis; assay type: cell-based, human; settings: after 72 h of nevirapine treatment
Excerpt: as §1

cyclin D1 in NIH/3T3 = test: Western immunoblotting of cyclin D1; assay type: cell-based, murine; settings: 72 h nevirapine vs non-exposed controls
Excerpt: as §1

[2] = test system: C2C7 myogenic satellite cells; test: Differentiation of C2C7 myogenic cells (myotube scoring, MHC immunofluorescence); assay type: cell-based, murine; settings: nevirapine pre-treatment, differentiation medium 48 h, anti-MHC IF
Excerpt: FIG. 4C, 60× magnification of myotubes in A. FIG. 4D, 60× magnification of myotubes in B. FIG. 4E, 60× magnification of MHC-positive myoblasts in the field in B.
Murine C2C7 myogenic satellite cells, which proliferate as mononucleated myoblasts can be induced to differentiate upon growth factor withdrawal and form multinucleated myotubes that express muscle-specific genes. […] By light-field microscopy scoring (n=300 cells from randomly selected fields), the ratio between multinucleated myotubes (i.e., cells with more than three nuclei) and mono/binucleated cells was about 1:1 in nevirapine-treated compared to 1:2 in untreated samples. Cells monolayers were further analyzed by immunofluorescence (IF) using a polyclonal antibody to myosin heavy chain (MHC), a late marker of muscle differentiation.

HL60 cells [3] = test: Morphological differentiation, Wright-Giemsa staining; assay type: cell-based, human; settings: five days of nevirapine treatment (400 μM)
Kasumi-1 cells [4] = test: Differentiation of AML cells poorly sensitive to RA; assay type: cell-based, human; settings: nevirapine treatment
primary AML blasts = test: as above; assay type: cell-based, human; settings: nevirapine treatment
NB4 cells = test: Cytofluorimetric analysis of cell surface markers; assay type: cell-based, human; settings: NB4, NEV 450 μM, 4 days
Excerpt: The induction of CD11b is associated with granulocytic differentiation, CD14 is considered a monocytic specific antigen and CD15 is a myelomonocytic antigen. Simultaneous induction of CD14 and CD11b relates to monocytic differentiation. […] In nevirapine-treated NB4 and HL60 cells, a strong induction of expression of CD15, and, to a lesser degree, CD11b and CD14 markers was detected.

AML#1 = test: Cytofluorimetric analysis of cell surface markers; assay type: cell-based, human; settings: AML#1, NEV 450 μM, 4 days
AML #1 [5] = test: Growth, viable cell count; assay type: cell-based, human; settings: AML #1, Nev 350 μM, 4 days
HL60 cells [6] = test: NBT dye reduction assay; assay type: cell-based, human; settings: HL60, Nev 350 μM, 4 days
Kasumi-1 cells [7] = test: NBT dye reduction assay; assay type: cell-based, human; settings: Kasumi-1, Nev 350 μM, 4 days
AML #1 [8] = test: NBT dye reduction assay; assay type: cell-based, human; settings: AML #1, Nev 350 μM, 4 days
AML #2 = test: NBT dye reduction assay; assay type: cell-based, human; settings: AML #2, Nev 350 μM, 4 days
F9 cells = test: Semi-quantitative RT-PCR of cell cycle regulatory genes; assay type: cell-based, murine; settings: nevirapine compared to non-exposed F9 cultures
Excerpt: FIG. 7B: Quantitative variations in gene expression. RT-PCR products hybridized with internal oligonucleotides were quantified by densitometry. […] Dark histograms represent the mean value, and light histograms the standard deviation, from at least three experiments for each gene. […] We examined a set of genes encoding D-type cyclins; growth inhibitors; modulators of apoptosis; and housekeeping proteins.

Morris 3924A hepatoma = test: Morris 3924A rat hepatoma in vivo
Description: Rat strain: ACI/T inbred (about 180 gr)
Tumor: Morris 3924A hepatoma is a fast-growing tumor which develops in inbred ACI/T animals. Three weeks after inoculation the tumor size is about 10 cm^3.
Preparation of tumor cells: hepatoma tumor cells are prepared from the animal about two weeks after inoculation. The tumor is surgically removed from the animal, separated from connective and necrotic tissues and minced in small pieces. Tumor fragments are then suspended in sterile physiological solution and inoculated in the internal site of one thigh using a 20 ml-syringe with a large size needle. Routinely 0.5 ml of cell suspension are injected. The success rate of tumor implantation is nearly 99%.
On the eleventh day, hepatoma cells were inoculated subcutaneously in pre-treated and in three non-treated control rats.
Procedures and Results: Morris hepatoma cells were inoculated in 4 rats ([…]). The same day, treatment with efavirenz was initiated in two of them by injecting 1 mg/rat/day.

[9] = test system: Kasumi-1 cell line and primary blasts from two AML patients; test: Cell cycle in myeloid leukemia cells poorly sensitive to RA; assay type: cell-based, human; settings: nevirapine treatment, data not shown

Cc1ccnc2c1NC(=O)c1cccnc1N2C1CC1 [nevirapine, 5,11-dihydro-11-cyclopropyl-4-methyl-6H-dipyrido-[3,2-b:2′,3′-e][1,4]diazepin-6-one]
development of early mouse embryos (early mouse embryos): early and effective developmental arrest
rate of proliferation [1]: decreases the rate of proliferation in all cell lines
cells with a G0/G1 DNA content (NIH/3T3): accumulated
cells with a G0/G1 DNA content (HT-29): accumulated
cells with a G0/G1 DNA content (MCF-7): accumulated
cells with a G0/G1 DNA content (U343 Mg): accumulated
cyclin D1 levels (cyclin D1 in NIH/3T3): substantial decrease
myosin synthesis in isolated myoblasts [2]: already activated
morphology (HL60 cells [3]): myelomonocytic-like morphology was evident
differentiation (morphological, functional, immunophenotypic) (Kasumi-1 cells [4]): triggering differentiation
differentiation (morphological, functional, immunophenotypic) (primary AML blasts): triggering differentiation
CD11b mean fluorescence intensity (NB4 cells): 10.1 AU
CD14 mean fluorescence intensity (NB4 cells): 23.1 AU
CD15 mean fluorescence intensity (NB4 cells): 196.3 AU
CD11b mean fluorescence intensity (AML#1): 5.9 AU
CD14 mean fluorescence intensity (AML#1): 8.8 AU
CD15 mean fluorescence intensity (AML#1): 15.6 AU
Viable cells N^0 × 10^5 (AML #1 [5]): 0.6 ± 0.1 × 10^5
NBT+ (%) (HL60 cells [6]): 37.8 ± 2.5%
NBT+ (%) (Kasumi-1 cells [7]): 31.2 ± 1.1%
NBT+ (%) (AML #1 [8]): 19.5 ± 0.7%
NBT (%) (AML #2): 68.1 ± 1.4%
Bcl-2 expression (F9 cells): Up-regulation
Cyclin D3 expression (F9 cells): down-regulated
Rb-2/p130 expression (F9 cells): Up-regulation
cyclin D1 gene down-regulation (F9 cells): 7 fold
expression of housekeeping genes (β-actin, GAPDH) (F9 cells): unaffected
p16^INK4a up-regulation (F9 cells): ~8 fold
p27^Kip1 expression (F9 cells): Up-regulation
p53 expression (F9 cells): unaffected
tumor at the site of injection (Morris 3924A hepatoma; nevirapine 18 mg/rat/day pre-treatment for 11 days, 17 days from inoculation, only one of 3 treated rats, controls 2-4 cm^3): small nodule of a few millimeters
rats in which onset and growth of hepatoma were antagonized (remained permanently healthy) (Morris 3924A hepatoma; nevirapine 18 mg/rat/day pre-treatment for 11 days, untreated 3/3 develop tumor): ⅔
histology of tumor tissue (Morris 3924A hepatoma; nevirapine-treated rat vs untreated sample): transformed areas are remarkably reduced, and cells present clear apoptotic features
accumulation of cells in the G1 phase of the cell cycle [9]: modest yet constant accumulation
